In patent US20170105949A1, “METHOD FOR IMPROVING FEED EFFICIENCY IN RUMINANTS” (Rivalea (Australia) Pty Ltd, priority 2014, published 2017):
Counter-ions that a name gives are not always drawn.

What was measured:
[1] = Growth performance and feed efficiency of lambs fed pelleted test diets ad libitum (live weight, feed intake by disappearance); assay type: in vivo, lambs (Border Leister x Merino)
Text: Lambs were used in this study as the model animal representing ruminants. Previous research has shown similar growth performance, feed efficiency and carcass benefits from the inclusion of Ractopamine in cattle and lamb diets. Given this, it is expected that the outcomes from feeding RAC and caffeine in combination to finishing lambs can be translated to expected results in other ruminants such as cattle. The surprising results found in lambs show promise for use of RAC and caffeine in other ruminants, particularly cattle where RAC is an approved animal feed additive.
(§1) A total of 36 male lambs (Border Leister x Merino) were selected at approximately 14 weeks of age and housed in pens of two lambs per pen in a naturally ventilated shed. Lambs were fed a commercial lamb finisher diet for a 14 day acclimatisation period prior to the start of the test period. In addition, all lambs were offered 250 g lucerne hay per day as roughage. At the start of the test period, lambs were individually weighed (average weight 29.8 kg±0.29 kg), ear tagged and the pen randomly allocated to one of three dietary treatments:
(§2) A: Control (no RAC or Caffeine for the entire 56 day test period)
(§3) B: RAC (20 ppm (20 g/t) RAC for the entire 56 day test period)
(§4) C: RAC +Caffeine (20 ppm (20 g/t)) RAC offered from day 0 to day 21, followed by 20 ppm (20 g/t) RAC plus 0.5 kg/t caffeine offered from day 21 to day 56).
(§5) Diets were pelleted and fed ad libitum for the entire test period, while water was also freely available at all times. In addition to the pelleted test feeds, each lamb was offered 200 g lucerne hay per day (floor fed) as an additional source of roughage.
Lambs were shorn prior to entry to the facility to minimise the impact of wool growth on rate of gain measurements and body composition analysis. Individual weights were recorded periodically throughout the test period (Days 0, 21, 35 and 56), while intake of the pelleted test diets was measured by feed disappearance and feed efficiency subsequently calculated.
No attempt was made to measure feed residues of the lucerne hay as the lambs consumed this rapidly and the volume of wastage was considered insignificant.
(§6) Data were subjected to an analysis of variance (ANOVA) for the main effect of dietary treatment. Data for treatments B and C were pooled for the initial 21 day feeding period as both treatment groups were fed the same diet during this time period. The experimental unit for all analyses was the pen of ruminant. All analyses were performed using Genstat 16th Edition (Payne RW, Harding SA, Genstat Committee 2005 Genstat release 8 reference manual, USN International: Oxford UK).

[2] = Body composition of lambs by dual energy x-ray absorptiometry (DXA) scanning; assay type: in vivo, lambs (Border Leister x Merino)
Text: as §1, §2, §3, §4, §5
Dual energy x-ray absorptiometry (DXA) scanning was undertaken using a Hologic X-Ray Bone Densitometer (Hologic Inc, Waltham, Mass., USA) at day 21 and day 56 of the test period. All lambs were weighed on the day of scanning (prior to anaesthesia). Lambs were sedated using xylazine (administered intramuscularly) and anaesthetised with ketamine intra venously under veterinary direction. Once anaesthetised, lambs were positioned in a ventral recumbency with their hind legs extended and forelegs positioned caudally to accommodate the DXA regional analysis software. The whole body scan mode was used for each animal, with the length of the scan adjusted for the length of the lamb. Following DXA analysis, lambs were monitored by a veterinarian for full recovery from anaesthesia. As the DXA software generates body composition estimates for humans, the raw DXA output from each scan was adjusted for lambs using equations developed by comparisons with actual empty body chemical composition (Hunter 2000).
as §6

[3] = RAC 20 ppm throughout, RAC + Caffeine: 0.5 kg/t caffeine added from day 21, day 0 weight as covariate
[4] = RAC 20 ppm, RAC + Caffeine: 20 ppm RAC plus 0.5 kg/t caffeine from day 21
[5] = day 0 to day 21, 20 ppm RAC in diet, treatments B and C pooled
[6] = entire test period, RAC 20 ppm, RAC + Caffeine: caffeine 0.5 kg/t added day 21-56
[7] = DXA, RAC 20 ppm day 0-56, RAC + Caffeine: caffeine 0.5 kg/t added day 21-56, live weight day 56 as covariate
[8] = DXA, RAC treatment groups pooled, 20 ppm RAC day 0-21
[9] = DXA, both groups 20 ppm RAC day 0-21, live weight day 21 as covariate

CC(CCc1ccc(O)cc1)NCC(O)c1ccc(O)cc1 (racemic) [RAC, Ractopamine hydrochloride]
Live weight day 21 ([1]; 20 ppm RAC in diet day 0-21, treatments B and C pooled, day 0 weight as covariate): 37.9 kg | Live weight Day 35 [1, 3]: 43.6 kg | Live weight Day 56 [1, 3]: 47.3 kg | ADFI Day 21-35 [1, 4]: 1.77 kg/day | ADFI Day 21-56 [1, 4]: 1.82 kg/day | ADFI Day 35-56 [1, 4]: 1.77 kg/day | ADG Day 21-35 [1, 4]: 0.380 kg/day | ADG Day 21-56 [1, 4]: 0.266 kg/day | ADG Day 35-56 [1, 4]: 0.177 kg/day | FCE Day 21-35 [1, 4]: 0.214 gain/feed | FCE Day 21-56 [1, 4]: 0.144 gain/feed | FCE Day 35-56 [1, 4]: 0.113 gain/feed | ADFI [1, 5]: 1.40 kg/day | ADG [1, 5]: 0.388 kg/day | FCE (gain/feed) [1, 5]: 0.28 gain/feed | ADFI Day 0-56 [1, 6]: 1.67 kg/day | ADG Day 0-56 [1, 6]: 0.317 kg/day | FCE Day 0-56 [1, 6]: 0.189 gain/feed | Live weight Day 21 ([1]; three treatments, both groups 20 ppm RAC day 0-21, day 0 weight as covariate): 38.2 kg | Adipose tissue (%) Day 56 [2, 7]: 22.90% | Bone mineral content (%) Day 56 [2, 7]: 3.01% | Lean tissue (%) Day 56 [2, 7]: 72.64% | adipose tissue at day 21, pooled data [2, 8]: 19.24% | percentage of lean tissue at day 21, pooled data [2, 8]: 76.83% | Adipose tissue (%) Day 21 [2, 9]: 19.18% | Bone mineral content (%) Day 21 [2, 9]: 2.95% | Lean tissue (%) Day 21 [2, 9]: 76.84% | Feed efficiency for lean tissue deposition (kg lean tissue gain: kg feed intake) Day 21-56 [2, 4]: 0.073 kg lean tissue gain: kg feed intake
